# In US9447136B2, “Semisynthetic derivatives of Nystatin A1” (BLIRT S.A., priority 2012, dated 2016):
# Read-outs that look alike come from different tables or passages of the source.
# Experiments:
# [1] = tested on: Candida albicans ATCC 10231; assay: Antifungal activity in vitro, serial dilution in RPMI 1640; format: cell-based; conditions: for Antifungal activity Candida albicans ATCC 10231 IC50 / Antifungal activity Candida albicans ATCC 10231 MIC: Table 2A, RPMI 1640, pH 7.0; for Antifungal activity Candida albicans ATCC 10231 IC50: A531 50% of control; for Antifungal activity Candida albicans ATCC 10231 MIC: A531 at most 20% of control
# Summary of the method: (§1)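 Growth (A531) plotted against compound concentration after serial dilution in RPMI 1640 buffered to pH 7.0, following the M27-A2 reference method. MIC: lowest concentration with A531 ≤20% of control; IC50: concentration interpolated at half control A531.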
# [2] = tested on: Candida glabrata DSM 11226; assay: as above; format: cell-based; conditions: Table 2A; RPMI 1640, pH 7.0
# Summary of the method: as §1
# Candida krusei DSM 6128 = assay: as above; format: cell-based; conditions: Table 2A; RPMI 1640, pH 7.0
# Summary of the method: as §1
# [3] = tested on: Candida lusitaniae DSM 70102; assay: as above; format: cell-based; conditions: Table 2A; RPMI 1640, pH 7.0
# Summary of the method: as §1
# [4] = tested on: Candida tropicalis KKP 334; assay: as above; format: cell-based; conditions: Table 2A; RPMI 1640, pH 7.0
# Summary of the method: as §1
# [5] = tested on: Saccharomyces cerevisiae ATCC 9763; assay: as above; format: cell-based; conditions: for Antifungal activity Saccharomyces cerevisiae ATCC 9763 MIC: Table 2A, RPMI 1640, pH 7.0, A531 at most 20% of control
# Summary of the method: as §1
# CCRF-CEM = assay: Cytotoxic activity against mammalian cells in tissue culture (MTT); format: cell-based, human; conditions: CCRF-CEM, 120 h, MTT
# Description: (§2) For examinations were used selected cell lines: CCRF-CEM—human acute lymphoblastic leukemia; HepG2—human malignant hepatoma; LLC-PK1—epithelial cell of pig kidney; All lines were from ATCC collection.
# (§3) The study are conducted using described below methods of culturing and determination of cytotoxic activity.
# (§4) CCRF-CEM cells were cultured in medium RPMI 1640+10% fetal bovine serum (FBS), LLC-PK1 cells in medium Medium 199+3% FBS, HepG2 cells in medium MEM+10% FBS. All media contained 100 μg/ml of penicillin G and streptomycin. 24-wells microplates containing appropriate medium were inoculated with the cells in amount of 1.2×10^4 cells/well and allowed to stand overnight. Next, tested compounds as solution in dimethylsulfoxide (DMSO) were added in volume of 10 μl (serial 2× dilutions). To control well 10 μl of DMSO was added. Microplates with cell suspensions were incubated for 120 h at temperature 37° C. at atmosphere of 95%/5% CO2. After incubation, to all wells 200 μl of solution of 3-(4,5-dimethylthiazole-2-yl)-2,5-diphenylotetrazole bromide (MTT) in PBS (4 mg/ml) was added and plates were further incubated for 4 h at 37° C. Next, to dissolve crystals of formazane 1 ml of DMSO was added and absorption of solutions was measured at the wavelength λ=540 nm (A540), using a microplates reader (Victor^3, Perkin-Wallac). […] From these graphs IC50 values were read, that is concentration of tested compound in the presence at which A540 value is half of A540 value measured in the control sample.
# HepG2 = assay: as above; format: cell-based, human; conditions: HepG2, 120 h, MTT
# Description: as §2, §3, §4
# LLC-PK1 = assay: as above; format: cell-based, pig; conditions: LLC-PK1, 120 h, MTT
# Description: as §2, §3, §4
# Human erythrocytes = assay: Hemotoxicity (hemolytic activity)
# Summary of the method: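 Human erythrocytes in saline (2×10^7/ml) were incubated with serially diluted compound at 37 °C for 30 min, then centrifuged. Released hemoglobin was read as A540 against 0.1% Triton X-100 as full hemolysis. EH50 is the interpolated concentration giving 50% of the control A540.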
# [6] = tested on: Aspergillus niger LOCK E201; assay: Antifungal activity in vitro, serial dilution in RPMI 1640; format: cell-based; conditions: Table 2B
# Summary of the method: as §1
# Candida arborea KKP 319 = assay: as above; format: cell-based; conditions: Table 2B
# Summary of the method: as §1
# [7] = tested on: Candida dubliniensis CBS 7987; assay: as above; format: cell-based; conditions: Table 2B
# Summary of the method: as §1
# [8] = tested on: Candida lipolytica KKP 322; assay: as above; format: cell-based; conditions: Table 2B
# Summary of the method: as §1
# [9] = tested on: Candida parapsilosis DSM 5784; assay: as above; format: cell-based; conditions: Table 2B
# Summary of the method: as §1
# [10] = tested on: Candida pseudotropicalis KKP 324; assay: as above; format: cell-based; conditions: Table 2B
# Summary of the method: as §1
# [11] = tested on: Candida quilliermondii DSM 11947; assay: as above; format: cell-based; conditions: Table 2B
# Summary of the method: as §1
# [12] = tested on: Candida stellatoidea CBS 1905; assay: as above; format: cell-based; conditions: Table 2B
# Summary of the method: as §1
# [13] = tested on: Trichoderma viride LOCK E159; assay: as above; format: cell-based; conditions: Table 2B
# Summary of the method: as §1
# Candida albicans 5674 = assay: Antifungal activity towards resistant (MDR) strains; format: cell-based
# Description: (§5) The determination of antifungal activity was performed by the serial dilutions method in buffered RPMI 1640 medium, in a 96-wells microplates, according to the standard procedure (National Committee for Clinical Laboratory Standards. Reference method for broth dilution antifungal susceptibility testing of yeast, approved standard, 2nd ed. M27-A2 vol. 22 Wayne, Pa., 2002). The optical density of cells suspension was measured using a microplates reader (Victor^3, Perkin-Elmer) at the wavelength λ=660 nm (A660). On the basis of received results the diagrams on interrelation between the A660 value and the concentration of tested compound were made. From these graphs MIC values were read, that are the concentrations of tested compounds, in the presence at which A660 value is at most 20% of A660 value measured in control sample.
# Candida albicans B3 = assay: as above; format: cell-based; conditions: fluconazole sensitive, parent strain for B4
# Description: as §5
# Candida albicans B4 = assay: as above; format: cell-based
# Description: as §5
# Candida albicans F2 = assay: as above; format: cell-based; conditions: fluconazole sensitive, parent strain for F5
# Description: as §5
# Candida albicans F5 = assay: as above; format: cell-based
# Description: as §5
# Candida albicans Gu4 = assay: as above; format: cell-based; conditions: fluconazole sensitive, parent strain for Gu5
# Description: as §5
# Candida albicans Gu5 = assay: as above; format: cell-based; conditions: fluconazole-resistant due to the overexpression of CDR1 and CDR2
# Description: as §5
# Candida albicans STY19 = assay: as above; format: cell-based
# Description: as §5
# Candida albicans STY31 = assay: as above; format: cell-based
# Description: as §5
# Candida albicans STY7 = assay: as above; format: cell-based
# Description: as §5
structure (smiles),measurement,setting,value
"CCN(CC)CCNC(=S)NC1C(O)C(C)OC(O[C@H]2/C=C/C=C/C=C/C=C/CC/C=C/C=C/[C@H](C)[C@@H](O)[C@@H](C)[C@H](C)OC(=O)C[C@H](O)C[C@H](O)C[C@H](O)CC[C@@H](O)[C@H](O)CC3(O)C[C@H](O)[C@@H](C(=O)O)[C@H](C2)O3)C1O (some centres unmarked) [Compound N14, N-{3-[2-(N,N-diethylamino)ethyl]thioureidyl}nystatin A1]",Antifungal activity Candida albicans ATCC 10231 IC50,[1],3.21 µg/mL
same,Antifungal activity Candida albicans ATCC 10231 MIC,[1],8 µg/mL
same,Antifungal activity Candida glabrata DSM 11226 MIC,[2],16 µg/mL
same,Antifungal activity Candida krusei DSM 6128 MIC,Candida krusei DSM 6128,16 µg/mL
same,Antifungal activity Candida lusitaniae DSM 70102 MIC,[3],4 µg/mL
same,Antifungal activity Candida tropicalis KKP 334 MIC,[4],8 µg/mL
same,Antifungal activity Saccharomyces cerevisiae ATCC 9763 MIC,[5],4 µg/mL
same,Cytotoxicity IC50 CCRF-CEM,CCRF-CEM,>100 µg/mL
same,Cytotoxicity IC50 HepG2,HepG2,>100 µg/mL
same,Cytotoxicity IC50 LLC-PK1,LLC-PK1,>100 µg/mL
"CC1OC(O[C@H]2/C=C/C=C/C=C/C=C/CC/C=C/C=C/[C@H](C)[C@@H](O)[C@@H](C)[C@H](C)OC(=O)C[C@H](O)C[C@H](O)C[C@H](O)CC[C@@H](O)[C@H](O)CC3(O)C[C@H](O)[C@@H](C(=O)O)[C@H](C2)O3)C(O)C(NC(=S)NCCCN(C)C)C1O (some centres unmarked) [Compound N17, N-{3-[3-(N,N-dimethylamino)propyl]thioureidyl}nystatin A1]",Antifungal activity Candida albicans ATCC 10231 IC50,[1],2.92 µg/mL
same,Antifungal activity Candida albicans ATCC 10231 MIC,[1],4 µg/mL
same,Antifungal activity Candida glabrata DSM 11226 MIC,[2],8 µg/mL
same,Antifungal activity Candida krusei DSM 6128 MIC,Candida krusei DSM 6128,8 µg/mL
same,Antifungal activity Candida lusitaniae DSM 70102 MIC,[3],4 µg/mL
same,Antifungal activity Candida tropicalis KKP 334 MIC,[4],4 µg/mL
same,Antifungal activity Saccharomyces cerevisiae ATCC 9763 MIC,[5],4 µg/mL
same,EH10,"Human erythrocytes; human erythrocytes, concentration causing 10% of hemolysis",156.33 µg/mL
same,Cytotoxicity IC50 CCRF-CEM,CCRF-CEM,>100 µg/mL
same,Cytotoxicity IC50 HepG2,HepG2,>100 µg/mL
same,Cytotoxicity IC50 LLC-PK1,LLC-PK1,>100 µg/mL
"C[C@@H]1[C@H](O)[C@@H](C)/C=C/C=C/CC/C=C/C=C/C=C/C=C/[C@H](O[C@@H]2O[C@H](C)[C@@H](O)[C@H](NC(=O)[C@H](N)c3ccccc3)[C@@H]2O)C[C@@H]2O[C@](O)(C[C@@H](O)C[C@@H](O)[C@H](O)CC[C@@H](O)C[C@@H](O)CC(=O)O[C@H]1C)C[C@H](O)[C@H]2C(=O)O [Compound N33, N-D-phenylglycylnystatin A1]",MIC Aspergillus niger LOCK E201,[6],32 µg/mL
same,MIC Candida albicans ATCC 10231,[1]; Table 2B,8 µg/mL
same,MIC Candida arborea KKP 319,Candida arborea KKP 319,32 µg/mL
same,MIC Candida dubliniensis CBS 7987,[7],16 µg/mL
same,MIC Candida lipolytica KKP 322,[8],16 µg/mL
same,MIC Candida parapsilosis DSM 5784,[9],32 µg/mL
same,MIC Candida pseudotropicalis KKP 324,[10],8 µg/mL
same,MIC Candida quilliermondii DSM 11947,[11],16 µg/mL
same,MIC Candida stellatoidea CBS 1905,[12],8 µg/mL
same,MIC Saccharomyces cerevisiae ATCC 9763,[5]; Table 2B,4 µg/mL
same,MIC Trichoderma viride LOCK E159,[13],32 µg/mL
same,% of hemolysis at the concentration 300 μg ml^−1,Human erythrocytes,8.69%
same,EH10,Human erythrocytes,>300 µg/mL
same,MIC Candida albicans 5674,Candida albicans 5674; C. albicans 5674 overexpressing CDR1 and CDR2,16 µg/mL
same,MIC Candida albicans B3,Candida albicans B3,4 µg/mL
same,MIC Candida albicans B4,Candida albicans B4; fluconazole-resistant due to the overexpression of CaMDR1,8 µg/mL
same,MIC Candida albicans F2,Candida albicans F2,16 µg/mL
same,MIC Candida albicans F5,Candida albicans F5; fluconazole-resistant due to the overexpression of CaMDR1 and ERG11,32 µg/mL
same,MIC Candida albicans Gu4,Candida albicans Gu4,8 µg/mL
same,MIC Candida albicans Gu5,Candida albicans Gu5,8 µg/mL
same,MIC Candida albicans STY19,"Candida albicans STY19; 5674 mutant derivative, deletion of CDR1",16 µg/mL
same,MIC Candida albicans STY31,"Candida albicans STY31; 5674 mutant derivative, deletion of CDR1 and CDR2",16 µg/mL
same,MIC Candida albicans STY7,"Candida albicans STY7; 5674 mutant derivative, deletion of CDR2",16 µg/mL
"OC(Cn1cncn1)(Cn1cncn1)c1ccc(F)cc1F [Fluconazole, reference compound]",MIC,"[6]; Aspergillus niger, LOCKE201",16 µg/mL
same,MIC,"[1]; Candida albicans, ATCC10231, Table 2B",2 µg/mL
same,MIC,"Candida arborea KKP 319; Candida, KKP319",8 µg/mL
same,MIC,"[7]; Candida dubliniensis, CBS7987",2 µg/mL
same,MIC,"[8]; Yarrowia lipolytica, KKP322",8 µg/mL
same,MIC,"[9]; Lodderomyces parapsilosis, DSM5784",8 µg/mL
same,MIC,"[10]; Kluyveromyces marxianus, KKP324",0.5 µg/mL
same,MIC,"[11]; Candida, DSM11947",8 µg/mL
same,MIC,"[12]; Candida albicans, CBS1905",0.5 µg/mL
same,MIC,"[5]; Saccharomyces cerevisiae, ATCC9763, Table 2B",2 µg/mL
same,MIC,"[13]; Trichoderma viride, LOCKE159",8 µg/mL
same,MIC,"Candida albicans 5674; Candida albicans, 5674, read-out: MIC Candida albicans 5674",2050 µg/mL
same,MIC,"Candida albicans B3; Candida albicans, B3",0.5 µg/mL
same,MIC,"Candida albicans B4; Candida albicans, B4, read-out: MIC Candida albicans B4",16 µg/mL
same,MIC,"Candida albicans F2; Candida albicans, F2",32 µg/mL
same,MIC,"Candida albicans F5; Candida albicans, F5, read-out: MIC Candida albicans F5",128 µg/mL
same,MIC,"Candida albicans Gu4; Candida albicans, GU4",0.5 µg/mL
same,MIC,"Candida albicans Gu5; Candida albicans, GU5",256 µg/mL
same,MIC,"Candida albicans STY19; Candida albicans, STY19, read-out: MIC Candida albicans STY19",64 µg/mL
same,MIC,"Candida albicans STY31; Candida albicans, STY31, read-out: MIC Candida albicans STY31",64 µg/mL
same,MIC,"Candida albicans STY7; Candida albicans, STY7, read-out: MIC Candida albicans STY7",512 µg/mL
